Experimental data as given in paper PMC3831620 (Naunyn-Schmiedeberg's archives of pharmacology, 2012).
pEC50, pIC50, pKi: −log10 of the molar value. Where two headings read alike, the source gives them in different places.

Legend:
[1] = tested on: any adenosine receptor subtype; test: Radioligand competition binding, stated for any adenosine receptor subtype; set-up: species or system human; conditions: for binding affinity in words: any adenosine receptor subtype, data not shown; for pKi: read-out: Ki at any of the adenosine receptor subtypes, any subtype
A1 receptor = biological target: T1, A1 receptor (Homo sapiens, UniProt P30542); format: biochemical; conditions: for maximal inhibition of forskolin-stimulated adenylyl cyclase: compared with CCPA, n = 3
T1 sequence (P30542 1-326): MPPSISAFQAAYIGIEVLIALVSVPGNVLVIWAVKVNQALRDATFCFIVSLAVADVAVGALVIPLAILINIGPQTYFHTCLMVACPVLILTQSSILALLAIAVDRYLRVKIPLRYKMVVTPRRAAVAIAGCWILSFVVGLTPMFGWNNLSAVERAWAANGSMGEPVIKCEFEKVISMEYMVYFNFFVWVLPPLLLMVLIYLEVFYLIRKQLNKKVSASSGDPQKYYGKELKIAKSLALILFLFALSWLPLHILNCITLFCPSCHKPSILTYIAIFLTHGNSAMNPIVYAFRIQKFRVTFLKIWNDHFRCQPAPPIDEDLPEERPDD

A2A adenosine receptor = A2A adenosine receptor (Homo sapiens, UniProt P29274); test: A2A receptor-mediated stimulation of adenylyl cyclase, CHO membranes; format: biochemical; conditions: for efficacy compared to the full agonist NECA: A2A stimulation of adenylyl cyclase, 1 μM NECA control; for agonist character at the A2A adenosine receptor: compared to NECA
Sequence of A2A adenosine receptor (P29274 whole entry): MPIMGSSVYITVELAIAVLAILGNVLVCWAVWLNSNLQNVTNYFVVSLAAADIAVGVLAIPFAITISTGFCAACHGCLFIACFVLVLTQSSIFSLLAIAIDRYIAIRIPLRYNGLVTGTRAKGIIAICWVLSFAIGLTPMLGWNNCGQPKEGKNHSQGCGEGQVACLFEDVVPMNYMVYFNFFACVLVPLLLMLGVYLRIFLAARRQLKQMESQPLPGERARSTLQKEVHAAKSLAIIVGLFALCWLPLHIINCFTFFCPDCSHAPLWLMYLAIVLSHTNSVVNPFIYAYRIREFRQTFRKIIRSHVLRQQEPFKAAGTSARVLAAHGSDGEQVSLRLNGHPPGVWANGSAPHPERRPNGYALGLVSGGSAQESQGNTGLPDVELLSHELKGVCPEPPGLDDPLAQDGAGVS

adenosine A2A receptor = adenosine A2A receptor (Homo sapiens, UniProt P29274); test: Radioligand competition binding, [3H]NECA, membranes of transfected CHO cells; conditions: Ki A2A (curve of Figure 2B), single experiment
Sequence of adenosine A2A receptor (P29274 whole entry): as above

A2B receptor = biological target: T2, A2B receptor (Homo sapiens, UniProt P29275); test: A2B receptor-mediated adenylyl cyclase activity, CHO membranes; format: biochemical
T2 sequence (P29275 1-332): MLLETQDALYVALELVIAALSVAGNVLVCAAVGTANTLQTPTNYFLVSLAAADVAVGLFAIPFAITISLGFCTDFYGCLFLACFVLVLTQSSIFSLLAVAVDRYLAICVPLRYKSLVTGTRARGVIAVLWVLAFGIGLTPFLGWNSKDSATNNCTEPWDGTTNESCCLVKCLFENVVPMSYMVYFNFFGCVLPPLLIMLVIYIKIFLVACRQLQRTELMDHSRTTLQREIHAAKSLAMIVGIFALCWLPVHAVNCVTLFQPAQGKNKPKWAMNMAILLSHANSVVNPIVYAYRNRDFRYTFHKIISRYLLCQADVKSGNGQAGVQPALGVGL

adenosine A3 receptor = biological target: T3, adenosine A3 receptor (Homo sapiens, UniProt P0DMS8); test: Radioligand competition binding, [3H]HEMADO, membranes of transfected CHO cells
T3 sequence (P0DMS8 1-318): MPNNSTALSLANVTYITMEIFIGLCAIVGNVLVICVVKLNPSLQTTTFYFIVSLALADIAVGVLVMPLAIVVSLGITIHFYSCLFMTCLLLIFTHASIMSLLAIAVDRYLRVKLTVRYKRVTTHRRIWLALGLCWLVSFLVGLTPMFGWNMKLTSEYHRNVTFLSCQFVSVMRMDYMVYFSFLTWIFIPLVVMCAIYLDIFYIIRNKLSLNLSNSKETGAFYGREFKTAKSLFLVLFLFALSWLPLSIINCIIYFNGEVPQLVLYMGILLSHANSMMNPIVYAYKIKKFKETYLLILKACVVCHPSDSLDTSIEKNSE

adenosine A1 receptor = biological target: T4, adenosine A1 receptor (Homo sapiens, UniProt P30542); test: Radioligand competition binding, [3H]CCPA, membranes of transfected CHO cells; conditions: Ki A1 (curve of Figure 2), single experiment
T4 sequence (P30542 1-326): T1 sequence (P30542 1-326)

[2] = tested on: adenosine receptor subtype A1; conditions: murine models; ref Lorenzen et al. 1998; cited from earlier work
[3] = hematopoietic cell transplant; ref Beitinjaneh et al. 2011, Chun et al. 1986, Ding et al. 2008; cited from earlier work

Row | Structure (SMILES) | binding affinity in words [1] | pKi [1] | maximal inhibition of forskolin-stimulated adenylyl cyclase (A1 receptor) | pIC50 (A2A adenosine receptor) | efficacy compared to the full agonist NECA (A2A adenosine receptor) | agonist character at the A2A adenosine receptor (A2A adenosine receptor) | pKi (adenosine A1 receptor) | pIC50 (A1 receptor) | pKi (adenosine A3 receptor) | other results
1 | Nc1nc(Cl)nc2c1ncn2[C@@H]1O[C@H](CO)[C@@H](O)[C@@H]1F [clofarabine, 2-chloro-2′-arabino-fluoro-2′-deoxyadenosine] | – | – | comparable to the full A1 receptor agonist CCPA | 5.01 | about 50% | partial agonists | 6.61 | – | – | efficacy in decreasing adenylyl cyclase activity, comparison (A1 receptor; 10 μM, versus equivalent concentrations of fludarabine or cladribine): more efficacious; pIC50 (A1 receptor; IC50 A1 agonist, adenylyl cyclase inhibition, values in text and abstract): 5.51; pKi (adenosine A2A receptor): 4.76; pEC50 (A2B receptor): < 4.00; pKi (adenosine A3 receptor; Ki A3 (curve of Figure 2B), [3H]HEMADO, single experiment): 5.08
2 | Nc1nc(Cl)nc2c1ncn2[C@H]1C[C@H](O)[C@@H](CO)O1 [cladribine, 2-chloro-2′-deoxyadenosine] | – | – | comparable to the full A1 receptor agonist CCPA | 4.79 | ~40% | partial agonists | 5.78 | < 5.00 | < 4.00 | agonist character at adenosine receptor subtype A1 [2]: partial agonist
3 | Nc1nc(F)nc2c1ncn2[C@@H]1O[C@H](CO)[C@@H](O)[C@@H]1O [fludarabine, 2-fluoroadenine-9-β-D-arabinofuranoside] | – | – | comparable to the full A1 receptor agonist CCPA | – | – | – | 5.65 | < 5.00 | < 4.00 | patients experiencing mild to severe neurological toxicities [3]: 2-10%
4 | Nc1nc(F)nc2c1ncn2[C@@H]1O[C@H](COP(=O)(O)O)[C@@H](O)[C@@H]1O [Fludarabine monophosphate, 2-fluoroadenine-9-β-D-arabinofuranoside-5′phosphate] | no detectable affinity | – | – | – | – | – | – | – | – | –

More lines, main results first:

Row | binding affinity in words [1] | pKi [1] | Structure (SMILES) | maximal inhibition of forskolin-stimulated adenylyl cyclase (A1 receptor) | pIC50 (A2A adenosine receptor) | efficacy compared to the full agonist NECA (A2A adenosine receptor) | agonist character at the A2A adenosine receptor (A2A adenosine receptor) | pKi (adenosine A1 receptor) | pIC50 (A1 receptor) | pKi (adenosine A3 receptor) | other results
5 | no detectable affinity | < 4.00 | Nc1ccn([C@@H]2O[C@H](CO)[C@@H](O)C2(F)F)c(=O)n1 [gemcitabine, 2′,2′-difluoro-2′-deoxycytidine] | – | – | – | – | – | – | – | –
6 | no detectable affinity | < 4.00 | Nc1ccn([C@@H]2O[C@H](CO)[C@@H](O)[C@@H]2O)c(=O)n1 [cytarabine, cytosine β-D-arabinofuranoside] | – | – | – | – | – | – | – | –
